Laboratory results taken from patent publication US20140283583A1, “SYSTEM FOR PIPELINE DRYING AND FREEZING POINT SUPPRESSION” (WEATHERFORD/LAMB, INC., priority 2007, published 2014).

Columns and labels:
Mysidopsis bahia = settings: 800 mg/L
Menidia beryllina = settings: 800 mg/L
[1] = FIG. 1, compared with methanol and ethylene glycol
[2] = 50% w/w solution in water

Question: For `O=C[O-].[K+]` [potassium formate], which “larval survival and growth toxicity testing (normality tests)” value (Mysidopsis bahia) is on record?
Answer: passed the normality tests

Question: What about the “larval survival and growth toxicity testing (normality tests)” value (Menidia beryllina) of the same compound?
Answer: passed the normality tests

Question: And the methane hydrate suppression [1]?
Answer: between ethylene glycol and methanol

Question: What about the freezing point [2] of the same compound?
Answer: around −60 °C
